{"source": "patent US8030443B2", "about": "“Squamous cell carcinoma antigen-derived peptide binding to HLA-A24 molecule” (Kurume University, priority 2005, dated 2011)", "system": "peptide-specific IgG in sera of cancer patients and healthy donors", "experiment": "Measurement of anti-peptide IgG in plasma by LUMINEX multiplexed flow cytometric assay", "assay_type": "binding, human", "description": "The levels of anti-peptide immunoglobulin G (IgG) were measured by the LUMINEX™ system (multiplexed flow cytometric assay) as previously reported (Komatsu N, Shichijo S, Nakagawa M, Itoh K. New multiplexed flow cytometric assay to measure anti-peptide antibody: a novel tool for monitoring immune responses to peptides used for immunization. Scand J Clin Lab Invest 2004; 64:1-11). In brief, plasma was incubated with 25 μl of peptide-coupled color-coded beads for 2 hr at room temperature on a plate shaker. After incubation, the mixture was washed with a vacuum manifold apparatus and incubated with 100 μl of biotinylated goat anti-human IgG (γ chain-specific)(BA-3080, Vector Laboratories, Burlingame, Calif., USA) for 1 h at room temperature. The plate was then washed, followed by the addition of 100 μl of streptavidin-PE (S-866, Molecular Probes, Eugene, Oreg., USA) into wells, and was incubated for 30 min at room temperature on a plate shaker. The bound beads were washed three times followed by the addition of 100 μl of Tween-PBS into each well. Fifty μl of sample was detected using the LUMINEX™ system (multiplexed flow cytometric assay). To confirm the specificity of IgG to a SCCA peptide, sample plasma was cultured in plates coated with a corresponding SCCA peptide, or with an irrelevant SCCA peptide. After the operation was repeated three times, the levels of the corresponding SCCA peptide-specific IgG in the resulting supernatant were determined by the LUMINEX™ system (multiplexed flow cytometric assay).\nThese 9 SCCA-derived peptides were screened based on their ability to be recognized by IgG in cancer patients. Peptide-specific IgG was measured by a multiplexed flow cytometric assay (LUMINEX™ (multiplexed flow cytometric assay)). The plasma samples were derived from 35 uterine cervical SCC patients, 10 breast adenocarcinoma patients, 10 pancreatic adenocarcinoma patients, 10 gastric adenocarcinoma, and 6 colon adenocarcinoma patients. The level of fluorescence intensity was judged to be significant when exceeded 100 at an 1/100 dilution.", "data": [{"sequence": "LFGEKTYLFL (SCCA 107-116 peptide) [SCCA-derived peptide, position 107-116]", "values": [{"measurement": "Total: healthy donors with significant peptide-reactive IgG / donors tested", "setting": "10 healthy donors, significant when fluorescence intensity exceeded 100 at 1/100 dilution", "result": "5/10"}, {"measurement": "Total: cancer patients with significant peptide-reactive IgG / patients tested", "setting": "71 cancer patients, significant when fluorescence intensity exceeded 100 at 1/100 dilution", "result": "27/71"}, {"measurement": "Specificity of IgG reactive to the peptide", "setting": "absorption assay: corresponding vs irrelevant SCCA peptide-coated wells (FIG. 3)", "result": "confirmed by absorption assay"}, {"measurement": "Fluorescence intesity", "setting": "serum of Breast Ca. patient #36, 1:100 dilution", "result": 211}, {"measurement": "Fluorescence intesity", "setting": "serum of Breast Ca. patient #37, 1:100 dilution", "result": 242}, {"measurement": "Fluorescence intesity", "setting": "serum of Breast Ca. patient #38, 1:100 dilution", "result": 146}, {"measurement": "Fluorescence intesity", "setting": "serum of Breast Ca. patient #39, 1:100 dilution", "result": 149}, {"measurement": "Fluorescence intesity", "setting": "serum of Breast Ca. patient #40, 1:100 dilution", "result": 146}, {"measurement": "Fluorescence intesity", "setting": "serum of Breast Ca. patient #41, 1:100 dilution", "result": 269}, {"measurement": "Fluorescence intesity", "setting": "serum of Breast Ca. patient #42, 1:100 dilution", "result": 219}, {"measurement": "Fluorescence intesity", "setting": "serum of Breast Ca. patient #43, 1:100 dilution", "result": 136}, {"measurement": "Fluorescence intesity", "setting": "serum of Breast Ca. patient #44, 1:100 dilution", "result": 146}, {"measurement": "Fluorescence intesity", "setting": "serum of Breast Ca. patient #45, 1:100 dilution", "result": 272}, {"measurement": "Fluorescence intesity", "setting": "serum of Colon Ca. patient #66, 1:100 dilution", "result": 40}, {"measurement": "Fluorescence intesity", "setting": "serum of Colon Ca. patient #67, 1:100 dilution", "result": 49}, {"measurement": "Fluorescence intesity", "setting": "serum of Colon Ca. patient #68, 1:100 dilution", "result": 0}, {"measurement": "Fluorescence intesity", "setting": "serum of Colon Ca. patient #69, 1:100 dilution", "result": 20}, {"measurement": "Fluorescence intesity", "setting": "serum of Colon Ca. patient #70, 1:100 dilution", "result": 91}, {"measurement": "Fluorescence intesity", "setting": "serum of Colon Ca. patient #71, 1:100 dilution", "result": 70}, {"measurement": "Fluorescence intesity", "setting": "serum of Gastric Ca. patient #56, 1:100 dilution", "result": 38}, {"measurement": "Fluorescence intesity", "setting": "serum of Gastric Ca. patient #57, 1:100 dilution", "result": 114}, {"measurement": "Fluorescence intesity", "setting": "serum of Gastric Ca. patient #58, 1:100 dilution", "result": 133}, {"measurement": "Fluorescence intesity", "setting": "serum of Gastric Ca. patient #59, 1:100 dilution", "result": 237}, {"measurement": "Fluorescence intesity", "setting": "serum of Gastric Ca. patient #60, 1:100 dilution", "result": 24}, {"measurement": "Fluorescence intesity", "setting": "serum of Gastric Ca. patient #61, 1:100 dilution", "result": 282}, {"measurement": "Fluorescence intesity", "setting": "serum of Gastric Ca. patient #62, 1:100 dilution", "result": 37}, {"measurement": "Fluorescence intesity", "setting": "serum of Gastric Ca. patient #63, 1:100 dilution", "result": 29}, {"measurement": "Fluorescence intesity", "setting": "serum of Gastric Ca. patient #64, 1:100 dilution", "result": 67}, {"measurement": "Fluorescence intesity", "setting": "serum of Gastric Ca. patient #65, 1:100 dilution", "result": 72}, {"measurement": "Fluorescence intesity", "setting": "serum of Healthy Donor #1, 1:100 dilution", "result": 53}, {"measurement": "Fluorescence intesity", "setting": "serum of Healthy Donor #2, 1:100 dilution", "result": 297}, {"measurement": "Fluorescence intesity", "setting": "serum of Healthy Donor #3, 1:100 dilution", "result": 67}, {"measurement": "Fluorescence intesity", "setting": "serum of Healthy Donor #4, 1:100 dilution", "result": 0}, {"measurement": "Fluorescence intesity", "setting": "serum of Healthy Donor #5, 1:100 dilution", "result": 331}, {"measurement": "Fluorescence intesity", "setting": "serum of Healthy Donor #6, 1:100 dilution", "result": 0}, {"measurement": "Fluorescence intesity", "setting": "serum of Healthy Donor #7, 1:100 dilution", "result": 0}, {"measurement": "Fluorescence intesity", "setting": "serum of Healthy Donor #8, 1:100 dilution", "result": 454}, {"measurement": "Fluorescence intesity", "setting": "serum of Healthy Donor #9, 1:100 dilution", "result": 246}, {"measurement": "Fluorescence intesity", "setting": "serum of Healthy Donor #10, 1:100 dilution", "result": 106}, {"measurement": "Fluorescence intesity", "setting": "serum of Pancreas Ca. patient #46, 1:100 dilution", "result": 0}, {"measurement": "Fluorescence intesity", "setting": "serum of Pancreas Ca. patient #47, 1:100 dilution", "result": 115}, {"measurement": "Fluorescence intesity", "setting": "serum of Pancreas Ca. patient #48, 1:100 dilution", "result": 431}, {"measurement": "Fluorescence intesity", "setting": "serum of Pancreas Ca. patient #49, 1:100 dilution", "result": 30}, {"measurement": "Fluorescence intesity", "setting": "serum of Pancreas Ca. patient #50, 1:100 dilution", "result": 29}, {"measurement": "Fluorescence intesity", "setting": "serum of Pancreas Ca. patient #51, 1:100 dilution", "result": 2}, {"measurement": "Fluorescence intesity", "setting": "serum of Pancreas Ca. patient #52, 1:100 dilution", "result": 286}, {"measurement": "Fluorescence intesity", "setting": "serum of Pancreas Ca. patient #53, 1:100 dilution", "result": 43}, {"measurement": "Fluorescence intesity", "setting": "serum of Pancreas Ca. patient #54, 1:100 dilution", "result": 126}, {"measurement": "Fluorescence intesity", "setting": "serum of Pancreas Ca. patient #55, 1:100 dilution", "result": 0}, {"measurement": "Fluorescence intesity", "setting": "serum of Uterine cervical Ca. patient #1, 1:100 dilution", "result": 20}, {"measurement": "Fluorescence intesity", "setting": "serum of Uterine cervical Ca. patient #2, 1:100 dilution", "result": 106}, {"measurement": "Fluorescence intesity", "setting": "serum of Uterine cervical Ca. patient #3, 1:100 dilution", "result": 51}, {"measurement": "Fluorescence intesity", "setting": "serum of Uterine cervical Ca. patient #4, 1:100 dilution", "result": 109}, {"measurement": "Fluorescence intesity", "setting": "serum of Uterine cervical Ca. patient #5, 1:100 dilution", "result": 55}, {"measurement": "Fluorescence intesity", "setting": "serum of Uterine cervical Ca. patient #6, 1:100 dilution", "result": 925}, {"measurement": "Fluorescence intesity", "setting": "serum of Uterine cervical Ca. patient #7, 1:100 dilution", "result": 15}, {"measurement": "Fluorescence intesity", "setting": "serum of Uterine cervical Ca. patient #8, 1:100 dilution", "result": 30}, {"measurement": "Fluorescence intesity", "setting": "serum of Uterine cervical Ca. patient #9, 1:100 dilution", "result": 84}, {"measurement": "Fluorescence intesity", "setting": "serum of Uterine cervical Ca. patient #10, 1:100 dilution", "result": 14}, {"measurement": "Fluorescence intesity", "setting": "serum of Uterine cervical Ca. patient #11, 1:100 dilution", "result": 25}, {"measurement": "Fluorescence intesity", "setting": "serum of Uterine cervical Ca. patient #12, 1:100 dilution", "result": 41}, {"measurement": "Fluorescence intesity", "setting": "serum of Uterine cervical Ca. patient #13, 1:100 dilution", "result": 33}, {"measurement": "Fluorescence intesity", "setting": "serum of Uterine cervical Ca. patient #14, 1:100 dilution", "result": 22}, {"measurement": "Fluorescence intesity", "setting": "serum of Uterine cervical Ca. patient #15, 1:100 dilution", "result": 134}, {"measurement": "Fluorescence intesity", "setting": "serum of Uterine cervical Ca. patient #16, 1:100 dilution", "result": 193}, {"measurement": "Fluorescence intesity", "setting": "serum of Uterine cervical Ca. patient #17, 1:100 dilution", "result": 65}, {"measurement": "Fluorescence intesity", "setting": "serum of Uterine cervical Ca. patient #18, 1:100 dilution", "result": 62}, {"measurement": "Fluorescence intesity", "setting": "serum of Uterine cervical Ca. patient #19, 1:100 dilution", "result": 70}, {"measurement": "Fluorescence intesity", "setting": "serum of Uterine cervical Ca. patient #20, 1:100 dilution", "result": 90}, {"measurement": "Fluorescence intesity", "setting": "serum of Uterine cervical Ca. patient #21, 1:100 dilution", "result": 25}, {"measurement": "Fluorescence intesity", "setting": "serum of Uterine cervical Ca. patient #22, 1:100 dilution", "result": 19}, {"measurement": "Fluorescence intesity", "setting": "serum of Uterine cervical Ca. patient #23, 1:100 dilution", "result": 75}, {"measurement": "Fluorescence intesity", "setting": "serum of Uterine cervical Ca. patient #24, 1:100 dilution", "result": 1457}, {"measurement": "Fluorescence intesity", "setting": "serum of Uterine cervical Ca. patient #25, 1:100 dilution", "result": 16}, {"measurement": "Fluorescence intesity", "setting": "serum of Uterine cervical Ca. patient #26, 1:100 dilution", "result": 147}, {"measurement": "Fluorescence intesity", "setting": "serum of Uterine cervical Ca. patient #27, 1:100 dilution", "result": 39}, {"measurement": "Fluorescence intesity", "setting": "serum of Uterine cervical Ca. patient #28, 1:100 dilution", "result": 196}, {"measurement": "Fluorescence intesity", "setting": "serum of Uterine cervical Ca. patient #29, 1:100 dilution", "result": 19}, {"measurement": "Fluorescence intesity", "setting": "serum of Uterine cervical Ca. patient #30, 1:100 dilution", "result": 41}, {"measurement": "Fluorescence intesity", "setting": "serum of Uterine cervical Ca. patient #31, 1:100 dilution", "result": 108}, {"measurement": "Fluorescence intesity", "setting": "serum of Uterine cervical Ca. patient #32, 1:100 dilution", "result": 19}, {"measurement": "Fluorescence intesity", "setting": "serum of Uterine cervical Ca. patient #33, 1:100 dilution", "result": 170}, {"measurement": "Fluorescence intesity", "setting": "serum of Uterine cervical Ca. patient #34, 1:100 dilution", "result": 16}, {"measurement": "Fluorescence intesity", "setting": "serum of Uterine cervical Ca. patient #35, 1:100 dilution", "result": 20}]}]}
